Tests used:
[1] = target: T1, hSCL (human selenocysteine lyase) (Homo sapiens, UniProt Q96I15); experiment: alanine dehydrogenase-coupled detection of product alanine; assay type: biochemical; settings: 5 mM seleno-L-cystine reduced in situ by 50 mM DTT (10 mM Sec equivalent), 0.2 mM PLP, pH 8.5, 37 °C, under nitrogen; time course only
T1 construct: gene SCLY; residues 8-445, N-terminal His6-TEV tag cleaved before assay and crystallization; E. coli BL21(DE3); homodimer
T1 sequence (Q96I15 8-445): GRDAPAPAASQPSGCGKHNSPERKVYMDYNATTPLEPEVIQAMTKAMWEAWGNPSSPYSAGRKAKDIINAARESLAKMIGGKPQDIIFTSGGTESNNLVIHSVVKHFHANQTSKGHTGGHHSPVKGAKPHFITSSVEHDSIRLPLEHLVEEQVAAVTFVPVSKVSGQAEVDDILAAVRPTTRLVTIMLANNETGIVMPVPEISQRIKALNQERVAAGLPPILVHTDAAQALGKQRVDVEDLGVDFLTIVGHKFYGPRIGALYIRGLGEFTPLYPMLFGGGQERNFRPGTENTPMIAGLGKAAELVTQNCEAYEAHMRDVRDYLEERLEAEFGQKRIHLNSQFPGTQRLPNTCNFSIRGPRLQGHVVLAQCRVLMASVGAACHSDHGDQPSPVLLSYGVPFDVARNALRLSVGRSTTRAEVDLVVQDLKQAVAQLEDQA

[2] = target: T1, hSCL (human selenocysteine lyase); experiment: X-ray crystal structure; assay type: binding; settings: P2_12_12_1 crystal, 2.1 Å; pH 6.7; copurified cofactor; active site at homodimer interface
[3] = target: the molecule itself; experiment: crystal structure; hSCL with PLP, His-tag cleaved; two crystal forms: P2(1)2(1)2(1), 2.1 A, 100 mM HEPES pH 6.7, 10% PEG6000, one dimer per asymmetric unit; P1, 1.8 A, 50 mM HEPES pH 8.1, 200 mM ammonium nitrate, 25% PEG3350, soaked with 10 mM L-cysteine for 2 h, two dimers per asymmetric unit; crystals grown at 20 C

Molecule: N[C@@H](C[SeH])C(=O)O [Sec]
- alanine dehydrogenase-coupled detection of product alanine [1]: The activity with Sec observed in the wild-type enzyme was not altered

Molecule: Cc1ncc(COP(=O)(O)O)c(C=O)c1O [PLP]
- X-ray crystal structure [2]: Human SCL homodimer in complex with the co-factor PLP.

B1: human selenocysteine lyase (hSCL), residues 8-445 (enzyme, UniProt Q96I15 8-445, looked up)
chain: GRDAPAPAASQPSGCGKHNSPERKVYMDYNATTPLEPEVIQAMTKAMWEAWGNPSSPYSAGRKAKDIINAARESLAKMIGGKPQDIIFTSGGTESNNLVIHSVVKHFHANQTSKGHTGGHHSPVKGAKPHFITSSVEHDSIRLPLEHLVEEQVAAVTFVPVSKVSGQAEVDDILAAVRPTTRLVTIMLANNETGIVMPVPEISQRIKALNQERVAAGLPPILVHTDAAQALGKQRVDVEDLGVDFLTIVGHKFYGPRIGALYIRGLGEFTPLYPMLFGGGQERNFRPGTENTPMIAGLGKAAELVTQNCEAYEAHMRDVRDYLEERLEAEFGQKRIHLNSQFPGTQRLPNTCNFSIRGPRLQGHVVLAQCRVLMASVGAACHSDHGDQPSPVLLSYGVPFDVARNALRLSVGRSTTRAEVDLVVQDLKQAVAQLEDQA
notes: human selenocysteine lyase (hSCL), residues 8-445, cDNA clone from the Mammalian Gene Collection (GenBank BC007891.2), cloned in pNIC-Bsa4; residues 120-132 are disordered; A few vector residues probably remain at the N-terminus after TEV cleavage (surmised; also called human SCL; Sec lyase; source: His-tag removed with TEV protease); not shown: His6, N-terminal, cleaved
- stoichiometry N [3]: 2

Source: publication PMC3266270, “Biochemical Discrimination between Selenium and Sulfur 1: A Single Residue Provides Selenium Specificity to Human Selenocysteine Lyase” (PLoS ONE, 2012)
